Measured values as given in patent US20230103791A1 (GLAXOSMITHKLINE INTELLECTUAL PROPERTY DEVELOPMENT LIMITED, priority 2019, published 2023).

Target: T1, human Nav1.8 (Homo sapiens, UniProt Q9Y5Y9)
T1 construct: expressed in transfected cells; host or cells: HEK293 (HEK293-Nav1.8)
Assay: Nav1.8 sodium channels assay, QPatch 48 HTX electrophysiology in HEK293-Nav1.8 cells
Type: cell-based
Details: at least one set of experimental runs; read-out: average pIC50 value against Nav1.8 (converted)
In short: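 IC50 came from 6-8 point curves of P2 current amplitude, normalized to baseline and a positive reference, and corrected for run-down using vehicle-only wells. Automated patch clamp used HEK293-Nav1.8 (with Navβ1 and TREK1) at pH 7.4 outside and CsF-based solution inside. An 8 s inactivating step at −46 mV preceded the 0 mV test pulse, repeated at 0.07 Hz.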

T1 sequence (Q9Y5Y9 whole entry): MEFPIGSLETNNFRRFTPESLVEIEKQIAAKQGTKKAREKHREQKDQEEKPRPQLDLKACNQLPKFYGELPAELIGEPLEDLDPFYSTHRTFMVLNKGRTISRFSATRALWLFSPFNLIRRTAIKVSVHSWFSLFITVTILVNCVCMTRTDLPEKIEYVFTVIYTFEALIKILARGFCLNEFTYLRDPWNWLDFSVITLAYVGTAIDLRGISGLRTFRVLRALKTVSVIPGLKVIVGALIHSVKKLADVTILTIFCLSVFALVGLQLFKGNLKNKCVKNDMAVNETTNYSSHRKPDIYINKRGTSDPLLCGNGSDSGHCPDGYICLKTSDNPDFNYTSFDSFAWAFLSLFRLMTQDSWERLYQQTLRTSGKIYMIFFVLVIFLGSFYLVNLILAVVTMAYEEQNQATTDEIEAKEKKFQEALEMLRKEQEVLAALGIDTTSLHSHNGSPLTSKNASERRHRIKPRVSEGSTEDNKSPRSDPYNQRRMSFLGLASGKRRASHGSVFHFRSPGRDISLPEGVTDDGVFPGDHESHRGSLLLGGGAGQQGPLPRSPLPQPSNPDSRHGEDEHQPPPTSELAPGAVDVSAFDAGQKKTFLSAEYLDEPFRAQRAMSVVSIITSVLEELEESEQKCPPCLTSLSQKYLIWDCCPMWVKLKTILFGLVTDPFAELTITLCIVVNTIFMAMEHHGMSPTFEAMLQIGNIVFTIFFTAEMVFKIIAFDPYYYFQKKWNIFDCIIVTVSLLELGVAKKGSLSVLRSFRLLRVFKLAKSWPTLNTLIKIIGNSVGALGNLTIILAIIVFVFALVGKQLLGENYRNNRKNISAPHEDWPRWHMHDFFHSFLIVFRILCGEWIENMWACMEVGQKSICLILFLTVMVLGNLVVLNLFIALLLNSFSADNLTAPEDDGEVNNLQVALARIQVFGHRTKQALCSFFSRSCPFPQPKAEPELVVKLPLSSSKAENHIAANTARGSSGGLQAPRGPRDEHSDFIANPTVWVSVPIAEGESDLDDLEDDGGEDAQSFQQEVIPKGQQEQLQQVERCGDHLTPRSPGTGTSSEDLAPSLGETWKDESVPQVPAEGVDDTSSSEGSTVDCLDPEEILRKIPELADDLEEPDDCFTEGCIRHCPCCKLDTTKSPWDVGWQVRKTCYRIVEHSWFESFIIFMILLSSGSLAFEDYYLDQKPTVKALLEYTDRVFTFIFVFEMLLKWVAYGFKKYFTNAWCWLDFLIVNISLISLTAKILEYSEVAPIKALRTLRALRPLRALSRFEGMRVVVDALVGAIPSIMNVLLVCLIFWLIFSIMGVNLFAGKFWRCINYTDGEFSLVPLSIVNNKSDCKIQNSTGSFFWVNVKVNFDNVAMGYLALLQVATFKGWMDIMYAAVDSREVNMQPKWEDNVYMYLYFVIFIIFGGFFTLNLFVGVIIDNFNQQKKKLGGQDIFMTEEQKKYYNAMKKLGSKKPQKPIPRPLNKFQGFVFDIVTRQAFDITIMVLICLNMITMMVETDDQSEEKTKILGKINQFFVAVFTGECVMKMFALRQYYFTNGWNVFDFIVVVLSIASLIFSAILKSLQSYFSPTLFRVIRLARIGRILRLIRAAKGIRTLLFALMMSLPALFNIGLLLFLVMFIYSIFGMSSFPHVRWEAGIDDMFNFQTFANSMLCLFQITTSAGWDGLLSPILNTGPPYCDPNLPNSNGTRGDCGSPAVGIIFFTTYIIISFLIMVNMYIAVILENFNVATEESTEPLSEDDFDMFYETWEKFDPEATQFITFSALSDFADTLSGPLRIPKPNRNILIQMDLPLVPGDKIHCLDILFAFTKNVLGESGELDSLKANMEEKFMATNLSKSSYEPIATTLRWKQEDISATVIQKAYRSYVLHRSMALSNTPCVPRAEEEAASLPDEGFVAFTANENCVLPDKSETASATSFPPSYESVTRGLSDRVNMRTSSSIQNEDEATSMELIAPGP
T1 sequence (Q07699 19-218 partner): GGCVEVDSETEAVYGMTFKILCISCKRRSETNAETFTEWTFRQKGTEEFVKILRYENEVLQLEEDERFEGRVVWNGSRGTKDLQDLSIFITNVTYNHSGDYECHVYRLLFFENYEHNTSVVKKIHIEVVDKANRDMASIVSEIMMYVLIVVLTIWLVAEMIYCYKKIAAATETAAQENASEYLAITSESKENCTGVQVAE

SMILES | IC50 [nM]
COc1nc2c(cc1F)C(=O)N(c1ccc(=O)[nH]c1C)CN2c1ccc(F)cc1C [Example 165, 6-fluoro-1-(4-fluoro-2-methylphenyl)-7-methoxy-3-(2-methyl-6-oxo-1,6-dihydropyridin-3-yl)-2,3-dihydropyrido[2,3-d]pyrimidin-4(1H)-one] | 126 to 631
Cc1cc(F)ccc1N1CN(c2ccc(=O)[nH]c2C)C(=O)c2cc(C#N)c(C(F)(F)F)cc21 [Example 166, 1-(4-fluoro-2-methylphenyl)-3-(2-methyl-6-oxo-1,6-dihydropyridin-3-yl)-4-oxo-7-(trifluoromethyl)-1,2,3,4-tetra-hydroquinazoline-6-carbonitrile] | ≤ 100
Cc1cc(F)ccc1N1CN(c2ccc(=O)[nH]c2C)C(=O)c2cc(Cl)c(OC(F)F)cc21 [Example 167, 6-chloro-7-(difluoromethoxy)-1-(4-fluoro-2-methylphenyl)-3-(2-methyl-6-oxo-1,6-dihydropyridin-3-yl)-2,3-dihydroquinazolin-4(1H)-one] | ≤ 100
Cc1cc(F)ccc1N1CN(c2ccc(=O)[nH]c2C)C(=O)c2cc(Cl)c(C(F)F)cc21 [Example 168, 6-chloro-7-(difluoromethyl)-1-(4-fluoro-2-methylphenyl)-3-(2-methyl-6-oxo-1,6-dihydropyridin-3-yl)-2,3-dihydroquinazolin-4(1H)-one] | ≤ 100
Cc1cc(F)ccc1N1CN(c2c[nH]c(=O)nc2N)C(=O)c2cc(C(F)(F)F)ccc21 [Example 169, 3-(4-amino-2-oxo-1,2-dihydropyrimidin-5-yl)-1-(4-fluoro-2-methylphenyl)-6-(trifluoromethyl)-2,3-dihydroquinazolin-4(1H)-one] | 126 to 631
Cc1cc(OC(F)(F)F)ccc1N1CN(c2ccc(=O)[nH]c2C)C(=O)c2cc(Cl)c(C#N)nc21 [Example 170, 6-chloro-1-(2-methyl-4-(trifluoromethoxy)phenyl)-3-(2-methyl-6-oxo-1,6-dihydropyridin-3-yl)-4-oxo-1,2,3,4-tetra-hydropyrido[2,3-d]pyrimidine-7-carbonitrile] | ≤ 100
Cc1cc(F)ccc1N1CN(c2ccc(=O)[nH]c2C)C(=O)c2cc(Cl)c(C#N)nc21 [Example 171, 6-chloro-1-(4-fluoro-2-methylphenyl)-3-(2-methyl-6-oxo-1,6-dihydropyridin-3-yl)-4-oxo-1,2,3,4-tetra-hydropyrido[2,3-d]pyrimidine-7-carbonitrile] | ≤ 100
Cc1cc(OC(F)(F)F)ccc1N1CN(c2ccc(=O)[nH]c2C)C(=O)c2cc(Cl)c(C#N)cc21 [Example 172, 6-chloro-1-(2-methyl-4-(trifluoromethoxy)phenyl)-3-(2-methyl-6-oxo-1,6-dihydropyridin-3-yl)-4-oxo-1,2,3,4-tetra-hydroquinazoline-7-carbonitrile] | ≤ 100
Cc1cc(F)ccc1N1CN(c2cnc(=O)[nH]c2C)C(=O)c2cc(Cl)c(C#N)cc21 [Example 173, 6-chloro-1-(4-fluoro-2-methylphenyl)-3-(6-methyl-2-oxo-1,2-dihydropyrimidin-5-yl)-4-oxo-1,2,3,4-tetra-hydroquinazoline-7-carbonitrile] | ≤ 100
Cc1[nH]c(=O)ccc1N1CN(c2cccc(C(F)(F)F)c2C)c2ncc(C(F)(F)F)cc2C1=O [Example 174, 1-(2-methyl-3-(trifluoromethyl)phenyl)-3-(2-methyl-6-oxo-1,6-dihydropyridin-3-yl)-6-(trifluoromethyl)-2,3-dihydropyrido[2,3-d]pyrimidin-4(1H)-one] | 126 to 631
Cc1[nH]c(=O)ccc1N1CN(c2cccc(Cl)c2C)c2ncc(C(F)(F)F)cc2C1=O [Example 175, 1-(3-chloro-2-methylphenyl)-3-(2-methyl-6-oxo-1,6-dihydropyridin-3-yl)-6-(trifluoromethyl)-2,3-dihydropyrido[2,3-d]pyrimidin-4(1H)-one] | 126 to 631
CCc1cc(F)ccc1N1CN(c2ccc(=O)[nH]c2C)C(=O)c2cc(C(F)(F)F)cnc21 [Example 176, 1-(2-ethyl-4-fluorophenyl)-3-(2-methyl-6-oxo-1,6-dihydropyridin-3-yl)-6-(trifluoromethyl)-2,3-dihydropyrido[2,3-d]pyrimidin-4(1H)-one] | ≤ 100
Cc1[nH]c(=O)ccc1N1CN(c2ccc(F)c(F)c2C)c2ncc(C(F)(F)F)cc2C1=O [Example 177, 1-(3,4-difluoro-2-methylphenyl)-3-(2-methyl-6-oxo-1,6-dihydropyridin-3-yl)-6-(trifluoromethyl)-2,3-dihydropyrido[2,3-d]pyrimidin-4(1H)-one] | ≤ 100

The next lines start with the values.

IC50 [nM] | SMILES
≤ 100 | Cc1[nH]c(=O)ccc1N1CN(c2ccc(F)cc2C(C)C)c2ccc(C(F)(F)F)cc2C1=O [Example 178, 1-(4-fluoro-2-isopropylphenyl)-3-(2-methyl-6-oxo-1,6-dihydropyridin-3-yl)-6-(trifluoromethyl)-2,3-dihydroquinazolin-4(1H)-one]
126 to 631 | Cc1cc(=O)[nH]cc1N1CN(c2ccc(F)cc2C)c2ccc(C(F)(F)F)cc2C1=O [Example 179, 1-(4-fluoro-2-methylphenyl)-3-(4-methyl-6-oxo-1,6-dihydropyridin-3-yl)-6-(trifluoromethyl)-2,3-dihydroquinazolin-4(1H)-one]
≤ 100 | Cc1[nH]c(=O)ccc1N1CN(c2ccc(F)cc2C(C)C)c2ccc(F)cc2C1=O [Example 180, 6-fluoro-1-(4-fluoro-2-isopropylphenyl)-3-(2-methyl-6-oxo-1,6-dihydropyridin-3-yl)-2,3-dihydroquinazolin-4(1H)-one]
126 to 631 | Cc1[nH]c(=O)ccc1N1CN(c2ccc(F)cc2C2CC2)c2ccccc2C1=O [Example 181, 1-(2-cyclopropyl-4-fluorophenyl)-3-(2-methyl-6-oxo-1,6-dihydropyridin-3-yl)-2,3-dihydroquinazolin-4(1H)-one]
≤ 100 | Cc1[nH]c(=O)ccc1N1CN(c2ccc(F)cc2C2CC2)c2cc(C(F)(F)F)ccc2C1=O [Example 182, 1-(2-cyclopropyl-4-fluorophenyl)-3-(2-methyl-6-oxo-1,6-dihydropyridin-3-yl)-7-(trifluoromethyl)-2,3-dihydroquinazolin-4(1H)-one]
126 to 631 | Cc1cc(F)ccc1N1CN(c2ccc(=O)[nH]c2C)C(=O)c2c(F)cccc21 [Example 183, 5-fluoro-1-(4-fluoro-2-methylphenyl)-3-(2-methyl-6-oxo-1,6-dihydropyridin-3-yl)-2,3-dihydroquinazolin-4(1H)-one]
≤ 100 | CCc1cc(F)ccc1N1CN(c2ccc(=O)[nH]c2C)C(=O)c2ccc(C(F)(F)F)cc21 [Example 184, 1-(2-ethyl-4-fluorophenyl)-3-(2-methyl-6-oxo-1,6-dihydropyridin-3-yl)-7-(trifluoromethyl)-2,3-dihydroquinazolin-4(1H)-one]
≤ 100 | Cc1cc(F)ccc1N1CN(c2ccc(=O)[nH]c2C)C(=O)c2ccc(OC(F)F)cc21 [Example 185, 7-(difluoromethoxy)-1-(4-fluoro-2-methylphenyl)-3-(2-methyl-6-oxo-1,6-dihydropyridin-3-yl)-2,3-dihydroquinazolin-4(1H)-one]
794 to 7940 | Cc1cc(F)ccc1-n1c(=O)n(-c2ccc(=O)[nH]c2)c(=O)c2ccc(C(F)(F)F)cc21 [Example 186, 1-(4-fluoro-2-methylphenyl)-3-(6-oxo-1,6-dihydropyridin-3-yl)-7-(trifluoromethyl) quinazoline-2,4(1H,3H)-dione]
≤ 100 | Cc1cc(F)ccc1N1CN(c2ccc(=O)[nH]c2C)C(=O)c2ccc(C3CC3)cc21 [Example 187, 7-cyclopropyl-1-(4-fluoro-2-methylphenyl)-3-(2-methyl-6-oxo-1,6-dihydropyridin-3-yl)-2,3-dihydroquinazolin-4(1H)-one]
≤ 100 | Cc1cc(F)ccc1N1CN(c2ccc(=O)[nH]c2C)C(=O)c2cc(OC(F)(F)F)ccc21 [Example 188, 1-(4-fluoro-2-methylphenyl)-3-(2-methyl-6-oxo-1,6-dihydropyridin-3-yl)-6-(trifluoromethoxy)-2,3-dihydroquinazolin-4(1H)-one]
≤ 100 | Cc1cc(OC(F)F)ccc1N1CN(c2ccc(=O)[nH]c2C)C(=O)c2cc(C(F)(F)F)ccc21 [Example 189, 1-(4-(difluoromethoxy)-2-methylphenyl)-3-(2-methyl-6-oxo-1,6-dihydropyridin-3-yl)-6-(trifluoromethyl)-2,3-dihydroquinazolin-4(1H)-one]
≤ 100 | CCc1[nH]c(=O)ccc1N1CN(c2ccc(F)cc2C)c2cc(OC(F)(F)F)ccc2C1=O [Example 190, 3-(2-ethyl-6-oxo-1,6-dihydropyridin-3-yl)-1-(4-fluoro-2-methylphenyl)-7-(trifluoromethoxy)-2,3-dihydroquinazolin-4(1H)-one]
≤ 100 | CCc1cc(F)ccc1N1CN(c2ccc(=O)[nH]c2C)C(=O)c2cc(Cl)c(F)cc21 [Example 191, 6-chloro-1-(2-ethyl-4-fluorophenyl)-7-fluoro-3-(2-methyl-6-oxo-1,6-dihydropyridin-3-yl)-2,3-dihydroquinazolin-4(1H)-one]
≤ 100 | CCc1cc(F)ccc1N1CN(c2ccc(=O)[nH]c2C)C(=O)c2cc(Cl)c(C#N)cc21 [Example 192, 6-chloro-1-(2-ethyl-4-fluorophenyl)-3-(2-methyl-6-oxo-1,6-dihydropyridin-3-yl)-4-oxo-1,2,3,4-tetra-hydroquinazoline-7-carbonitrile]
≤ 100 | Cc1cc(F)ccc1N1CN(c2ccc(=O)[nH]c2C)C(=O)c2c1cc(F)c(Cl)c2F [Example 193, 6-chloro-5,7-difluoro-1-(4-fluoro-2-methylphenyl)-3-(2-methyl-6-oxo-1,6-dihydropyridin-3-yl)-2,3-dihydroquinazolin-4(1H)-one]
≤ 100 | Cc1cc(F)ccc1N1CN(c2ccc(=O)[nH]c2C)C(=O)c2c1cc(C#N)c(Cl)c2F [Example 194, 6-chloro-5-fluoro-1-(4-fluoro-2-methylphenyl)-3-(2-methyl-6-oxo-1,6-dihydropyridin-3-yl)-4-oxo-1,2,3,4-tetra-hydroquinazoline-7-carbonitrile]
